# How the values were obtained:
# [1] = tested on: adipocytes of male SD rat; experiment: Acceleration of oxidation of neutral fat in adipocytes (glycerol released into the medium); type: cell-based; conditions: added in 10 μmol unit, control = 100%, FIG. 1
# Experimental: Epididymal adipose tissues obtained from male SD rat were cut to small pieces, and 0.1% of collagenase (in DMEM without phenol red) was added then cultured for 2 hours at 37° C., and then filtered to obtain adipocyte.
# A control was cultured in a medium not containing the composition of the present invention (experimental material). In the experimental samples, genistein and/or L-carnitine was added in 10 μmol unit. Results are calculated relatively converting the control to be 100%. Degrees of oxidation of fats are determined by measuring the concentration of glycerol separated into the medium from the adipocytes.
# Experiments were performed by taking cell cultures prepared by adding colorless DMEM (Dulbeco's modified eagles medium) containing 0.5% bovine serum albumin (BAS) without fatty acid to the adipocytes. The amount of glycerol was measured with color reaction method using GPO-trinder kit purchased from Sigma (St. Louis, Mo., U.S.A) and absorption in 540 nm was measured with ELISA reader.
# [2] = tested on: obesity induced by high fat diet; experiment: Weight of epididymal adipose tissue of rats after 8 weeks of high fat diet; type: in vivo, Sprague-Dawley white male rat; conditions: for Weight of epididymal adipose: after 8 weeks, high fat diet + 0.2% of each substance in diet, n = 12; for weight of epididymal adipose compared with control group with high fat diet: words, 0.2% in high fat diet, 8 weeks
# Description: In order to verify the effects of the present composition to the metabolism of lipid in the fat animals induced by dieting high fat diet, Sprague-Dawley white male rat model was selected. In order to verify the effects of genistein, diadzein and glycitein to the obesity induced from high fat diet, rats of 6 weeks old were adapted for a week and assigned 12 rats for each experimental group. Experimental groups are as follows: (1) normal fat diet; (2) high fat diet; (3) high fat diet+genistein 0.2%; (4) high fat diet+L-carnitine 0.2%; (5) high fat diet+genistein 0.2%+L-carnitine 0.2%; (6) high fat diet+diadzein 0.2%; (7) high fat diet+diadzein 0.2%+L-carnitine 0.2%; (8) high fat diet+glycitein 0.2%; and (9) high fat diet+glycitein 0.2%+L-carnitine 0.2%, and the rats were dieted for 8 weeks. Basic experimental diet was purified AIN-93G diet, and high fat diet was prepared to have fat occupy 36% of the total energy (18% of the total diet), normal fat diet was prepared to have fat occupy 17% of the total energy (7% of the total diet).
# After 8 weeks of dieting with the groups of normal fat diet, high fat diet, high fat diet+genistein (0.2%), high fat diet+L-carnitine (0.2%), high fat diet+genistein (0.2%)+L-carnitine (0.2%), high fat diet+diadzein (0.2%), high fat diet+diadzein (0.2%)+L-carnitine (0.2%), high fat diet+glycitein (0.2%) and high fat diet+glycitein (0.2%)+L-carnitine (0.2%), the rats were sacrificed to obtain epididymal adipose tissues. The above obtained epididymal adipose tissues were washed with saline and moistures were removed on a filter bed, then weights were measured.
# [3] = tested on: obesity induced by high fat diet; experiment: Body weight and food consumption of rats on high fat diet, 8 weeks of dieting; type: in vivo, Sprague-Dawley white male rat; conditions: for Body weight after dieting: after 8 weeks, high fat diet + 0.2% of each substance in diet, n = 12; for increase of body weight compared with control group with high fat diet: words, 0.2% in high fat diet, 8 weeks
# Description: In order to verify the effects of the present composition to the metabolism of lipid in the fat animals induced by dieting high fat diet, Sprague-Dawley white male rat model was selected. In order to verify the effects of genistein, diadzein and glycitein to the obesity induced from high fat diet, rats of 6 weeks old were adapted for a week and assigned 12 rats for each experimental group. Experimental groups are as follows: (1) normal fat diet; (2) high fat diet; (3) high fat diet+genistein 0.2%; (4) high fat diet+L-carnitine 0.2%; (5) high fat diet+genistein 0.2%+L-carnitine 0.2%; (6) high fat diet+diadzein 0.2%; (7) high fat diet+diadzein 0.2%+L-carnitine 0.2%; (8) high fat diet+glycitein 0.2%; and (9) high fat diet+glycitein 0.2%+L-carnitine 0.2%, and the rats were […] for 8 weeks. […] The amount of diet consumed and body weight was measure three times per week during dieting.
# [4] = cited from earlier work
# CPT-1 = experiment: Expression of CPT-1 mRNA in liver by northern blotting and densitometry; type: in vivo, rat; conditions: 8 weeks
# Description: After 8 weeks of dieting with following four (4) groups of high fat diet, high fat diet+genistein (0.2%), high fat diet+genistein (0.2%)+L-carnitine (0.2%) and high fat diet+genistein (0.4%), the rats were sacrificed to obtain liver tissues thereof. After homogenizing the liver tissues, RNA were extracted from the tissues using TRIZOL (Life Technologies, grand Island, N.Y., USA) consisting of phenol and guanidine isothiocyanate. Degree of expression of CPT-1 mRNA from the above extracted RNA was measured by northern blotting test, and expressed quantitatively by densitometry as shown in FIGS. 2a and 2b.
Compound,oxidation of fatty acids increased compared with that of the control [1],Weight of epididymal adipose [2],weight of epididymal adipose compared with control group with high fat diet [2],Body weight after dieting [3],increase of body weight compared with control group with high fat diet [3],"side effects of an excessive quantity, female rats ([4]; female rats)","side effects of an excessive quantity, male rats ([4]; male rats)","expression of CPT-1 compared with the group of high fat diet (CPT-1; 0.2% of each substance in high fat diet, FIG. 2b)",dependence of the expression of CPT-1 on concentration (CPT-1; genistein 0.2% vs 0.4% in high fat diet)
"C[N+](C)(C)CC(O)CC(=O)[O-] [L-carnitine, β-hydroxy-γ-trimethylammonium butyric acid]",2.07 times,7.9 ± 0.45 g,almost the same,465.1 ± 31.8 g,almost the same,,,,
O=c1c(-c2ccc(O)cc2)coc2cc(O)ccc12 [diadzein],,6.1 ± 0.35 g,also small,441.3 ± 19.4 g,also small,,,,
O=c1c(-c2ccc(O)cc2)coc2cc(O)cc(O)c12 [genistein],1.92 times,5.2 ± 0.67 g,small,433.5 ± 19.4 g,small,disorder of secretion,reduction of spermatozoa and sperm,increased,increases positively according to the concentration of genistein
COc1cc2c(=O)c(-c3ccc(O)cc3)coc2cc1O [glycitein],,6.3 ± 0.41 g,also small,446.4 ± 21.6 g,also small,,,,
